Data: patent US5106407A, “Iodones and methods for antimicrobial use” (priority 1989, dated 1992)
Converted amounts (≈) assume the structure as drawn.

Assays:
[1] = tested on: Selenastrum capricornutum; assay: algaecide test, inhibition of growth; type: cell-based; details: 96 hr incubation, read-out: growth of the algae, Percent of Control
Experimental: Using a Coulter Counter, the growth of this algea was measured after 96 hr incubation with various levels of biocide, i.e., (2-nitrophenyl)-iodonium 2,2-dimethyl-4,6-dioxo-1,3-dioxan-5-ylide.

[2] = tested on: bacteria listed in Table I, Klebsiella oxytoca, Enterobacter gergoviae, Pseudomonas putida #1, and Pseudomonas putida #2; assay: protein shampoo preservation test
Experimental: Fifty gram aliquots of the latex were placed in sterile bottles and one hundred gram aliquots of the diluted cutting oil were placed in 250-mL Erlenmeyer flasks. An appropriate amount of a fresh 1 percent stock solution of (2-nitrophenyl)-iodonium 2,2-dimethyl-4,6-dioxo-1,3-dioxan-5-ylide in acetone-water was added to achieve the desired final concentrations (see Tables 5 and 6). A small portion of the respective latex or cutting oil preparation was then streaked onto Tryptic Soy Agar (TSA) petri plates using sterile cotton swabs to determine whether the preparations were sterile. If the particular preparation was sterile, it was then inoculated with an appropriate volume (0.1 mL for the latex and 0.2 mL for the cutting oil) of a mixture of equal aliquots of 24 hr cultures of each of the bacterial organisms listed in Table 1 (not the fungi and yeast). The latex samples were incubated at 30° C. and the cutting oils were agitated on a rotary shaker at room temperature. After 24 hr, all samples were again streaked on TSA. All plates were then incubated at 30° C. for 48 hr and then rated 1 to 10 according to the growth rating system described in Table 4.
The results from this first set of streaks after inoculation are listed in the columns labeled streak number 1 in Tables 5 and 6. Samples with a rating of 3 or less from streak number 1 were reinoculated as described for the first inoculation above. Samples with a rating of 4 or greater were not reinoculated. After another 24 hr all samples were again restreaked on TSA agar. The results from these second streaks were labeled streak number 2 in Tables 5 and 6. Samples were reinoculated and restreaked in this fashion for a maximum of 10 streaks. Any samples with two streaks in a row with a ten rating were not restreaked again.
The ingredients of the hand creme, hand lotion, and protein shampoo are listed in Tables 7, 8 and 9, respectively. In the cosmetic preservative procedures, the stock solution of (2-nitrophenyl)-iodonium 2,2-dimethyl-4,6-dioxo-1,3-dioxan-5-ylide) was made in dimethylformamide (DMF)/water solution. In addition to the bacteria listed in Table I, the following bacteria were also included in the inocula: Klebsiella oxytoca, Enterobacter gergoviae, Pseudomonas putida #1, and Pseudomonas putida #2.

[3] = tested on: Penicillium chrysogenum; assay: minimum inhibitory concentration (MIC), agar dilution; type: cell-based; details: ATCC 9480; malt yeast agar
Experimental: (§1) The minimum inhibitory concentration (MIC) for the compound of Example 19, i.e., (2-nitrophenyl)-iodonium 2,2-dimethyl-4,6-dioxo-1,3-dioxan-5-ylide was determined for 9 bacteria (using nutrient agar) and 5 yeast and fungi (using malt yeast agar). A one percent solution of this test compound (i.e., the compound of Example 19) was prepared in a mixture of acetone-water. Nutrient agar was prepared at pH 6.8 using deionized water according to standard Difco procedures. Malt yeast agar was prepared by adding 3 g Bacto yeast extract and 42 g Bacto Malt agar per liter of deionized water. The agar (nutrient agar when testing with bacteria and malt yeast agar when testing with yeast and fungi) was dispensed in 30 mL aliquots into 25×200 millimeter (mm) test tubes, capped and autoclaved for 15 min at 115° C. The test tubes containing the agar were cooled in a water bath until the temperature of the agar was 48° C. and then an appropriate amount of the one percent solution of the test compound was added (except in the controls where no test compound was added with the acetone-water) to the respective test tubes so that final concentrations of 500, 250, 100, 50, 25, 10, 5, 2.5, 1.0 and 0 parts per million (ppm) of the test compound in the agar were obtained. The agar solutions were each mixed and poured into individual petri plates so that each petri plate contained agar having a known concentration of test compound dispersed therein. After drying for 24 hr, the petri plates were inoculated with bacteria when the petri plates contained nutrient broth agar or with fungi and yeast when the petri plates contained malt yeast agar.
(§2) The petri plates were incubated at 30° C. for 48 hr and then read to determine if the test compound (i.e., the compound of Example 19) which was incorporated into the agar prevented growth of the respective bacteria. The minimum inhibitory concentration (MIC) for each bacteria was defined as the lowest concentration of the test compound which prevented growth of that bacteria.
(§3) The inoculation with the fungi and yeast was accomplished as follows. Cultures of fungi and yeast were incubated for 7 days on malt yeast agar at 30° C. These cultures were used to prepare suspensions by the following procedure. A suspension of each organism was prepared by adding 10 mL of sterile saline and 10 microliters […] of Triton ×100 to the slant. The sterile saline/Triton ×100 solution was then agitated with a sterile swab to suspend the microorganism grown on the slant. Each resulting suspension was diluted into sterile saline (1 part suspension: 9 parts sterile saline). […] The petri plates were incubated at 30° C. and read after 48 hr for yeast and 72 hr for fungi.

[4] = tested on: Candida albicans; assay: as above; type: cell-based; details: ATCC 10231; malt yeast agar
Experimental: as §1, §2, §3

[5] = tested on: Trichoderma viride; assay: as above; type: cell-based; details: ATCC 8678; malt yeast agar
Experimental: as §1, §2, §3

[6] = tested on: Aspergillus niger; assay: as above; type: cell-based; details: ATCC 16404; malt yeast agar
Experimental: as §1, §2, §3

For `CC1(C)OC(=O)[C-]([I+]c2ccccc2[N+](=O)[O-])C(=O)O1` [Example 19, (2-Nitrophenyl)-iodonium 2,2-dimethyl-4,6-dioxo-1,3-dioxan-5-ylide], which activity at 0.01 ppm ([1]; 0.01 ppm) is on record?
Its activity at 0.01 ppm is 77%.

What about the activity at 0.1 ppm ([1]; 0.1 ppm) of the same molecule?
Its activity at 0.1 ppm is 2.4%.

And the activity at 1 ppm ([1]; 1.0 ppm)?
The activity at 1 ppm was 0.65%.

What about the activity at 10 ppm ([1]; 10 ppm) of the same molecule?
The activity at 10 ppm was 0.59%.

And the activity at 32 ppm ([1]; 32 ppm)?
Its activity at 32 ppm is 0.53%.

What about the growth rating ([2]; 10 ppm, streak 1) of the same molecule?
Its growth rating is 1 (0).

What about the growth rating ([2]; 10 ppm, streak 2) of the same molecule?
The growth rating was 1 (0).

And the growth rating ([2]; 10 ppm, streak 10)?
The growth rating was 1 (0).

What about the growth rating ([2]; 25 ppm, streak 1) of the same molecule?
Its growth rating is 1 (0).

And the growth rating ([2]; 25 ppm, streak 2)?
Its growth rating is 1 (0).

What about the growth rating ([2]; 25 ppm, streak 3) of the same molecule?
Its growth rating is 1 (0).

And the growth rating ([2]; 25 ppm, streak 4)?
Its growth rating is 1 (0).

And the growth rating ([2]; 25 ppm, streak 5)?
Its growth rating is 1 (0).

What about the growth rating ([2]; 25 ppm, streak 6) of the same molecule?
The growth rating was 1 (0).

What about the growth rating ([2]; 25 ppm, streak 7) of the same molecule?
The growth rating was 1 (0).

What about the growth rating ([2]; 25 ppm, streak 8) of the same molecule?
Its growth rating is 1 (0).

And the growth rating ([2]; 25 ppm, streak 9)?
The growth rating was 1 (0).

And the growth rating ([2]; 25 ppm, streak 10)?
Its growth rating is 1 (0).

What about the growth rating ([2]; 50 ppm, streak 1) of the same molecule?
The growth rating was 1 (0).

And the growth rating ([2]; 50 ppm, streak 2)?
The growth rating was 1 (0).

What about the growth rating ([2]; 50 ppm, streak 3) of the same molecule?
Its growth rating is 1 (0).

What about the growth rating ([2]; 50 ppm, streak 4) of the same molecule?
Its growth rating is 1 (0).

What about the growth rating ([2]; 50 ppm, streak 5) of the same molecule?
The growth rating was 1 (0).

And the growth rating ([2]; 50 ppm, streak 6)?
The growth rating was 1 (0).

And the growth rating ([2]; 50 ppm, streak 7)?
The growth rating was 1 (0).

What about the growth rating ([2]; 50 ppm, streak 8) of the same molecule?
Its growth rating is 1 (0).

And the growth rating ([2]; 50 ppm, streak 9)?
Its growth rating is 1 (0).

And the growth rating ([2]; 50 ppm, streak 10)?
The growth rating was 1 (0).

What about the growth rating ([2]; 100 ppm, streak 1) of the same molecule?
Its growth rating is 1 (0).

What about the growth rating ([2]; 100 ppm, streak 2) of the same molecule?
Its growth rating is 1 (0).

And the growth rating ([2]; 100 ppm, streak 3)?
Its growth rating is 1 (0).

And the growth rating ([2]; 100 ppm, streak 4)?
The growth rating was 1 (0).

And the growth rating ([2]; 100 ppm, streak 5)?
The growth rating was 1 (0).

What about the growth rating ([2]; 100 ppm, streak 6) of the same molecule?
The growth rating was 1 (0).

What about the growth rating ([2]; 100 ppm, streak 7) of the same molecule?
Its growth rating is 1 (0).

What about the growth rating ([2]; 100 ppm, streak 8) of the same molecule?
Its growth rating is 1 (0).

And the growth rating ([2]; 100 ppm, streak 9)?
The growth rating was 1 (0).

What about the growth rating ([2]; 100 ppm, streak 10) of the same molecule?
The growth rating was 4 (11-25).

What about the MIC [3] of the same molecule?
Its MIC is 100 µg/mL (≈ 256 µM).

And the MIC [4]?
The MIC was 100 µg/mL (≈ 256 µM).

And the MIC [5]?
Its MIC is 250 µg/mL (≈ 639 µM).

What about the MIC [6] of the same molecule?
The MIC was 250 µg/mL (≈ 639 µM).
